According to US4633014A, “Substituted 3-hydrazinopropionates” (priority 1983, dated 1986):
Structures can show the parent of a compound that is named as a salt.

How the values were obtained:
[1] = system: arrhythmia induced by an intravenous administration of calcium chloride; assay: Antiarrhythmic activity on a model of arrhythmia induced by intravenous calcium chloride (antagonism to calcium) in mice; type: in vivo; details: white mice, 20-40 minutes before
Description: The specific (antiarrhythmic) effect and acute toxicity were studied.
The antiarrhythmic activity of the compounds according to the present invention was studied on a model of arrhythmia induced by an intravenous administration of calcium chloride. In experiments on white mice of both sexes with a mass of 18-25 g narcotized by urethane (1,200 mg/kg intraperitoneally) ECG in the second standard lead was recorded. A 2% solution of calcium chloride was introduced into the tail vein at a constant rate (0.01 ml for 2 sec). The dose of calcium chloride causing arrhythmia and the dose causing the heart arrest were determined. In the test groups the test compounds were administered intraperitoneally 20-40 minutes before the beginning of the experiment.

[2] = in vivo; details: mouse, in vivo, ip
Description: (§1) The study of the effect provided by the compounds according to the present invention on the cardio-vascular system was carried out in experiments on white mice. The specific (antiarrhythmic) effect and acute toxicity were studied.
(§2) The acute toxicity of the compounds according to the present invention was determined in experiments on white mice with a mass of 20-25 g. The test compounds were administered intraperitoneally in the form of aqueous solutions or suspensions in Twin-80. Observation over the test animals was effected for 10 days.

[3] = system: white mice; assay: in vivo
Description: as §1, §2

[4] = white mice, intraperitoneal, relative to quinidine

Row | Structure (SMILES) | Dose of calcium chloride causing arrythmia in animals under experiment ([1]; intraperitoneal dose 5 mg/kg) | Dose of calcium chloride causing death in animals under experiment ([1]; intraperitoneal dose 5 mg/kg) | Dose of calcium chloride causing arrythmia in animals under experiment ([1]; intraperitoneal dose 15 mg/kg) | Dose of calcium chloride causing death in animals under experiment ([1]; intraperitoneal dose 15 mg/kg) | LD50 at 240 h [2] [mg/kg] | Relative toxisity to quinidine ([3]; mouse, in vivo, ip, 14400 min) | Dose of calcium chloride causing arrythmia in animals under experiment ([1]; intraperitoneal dose 25 mg/kg) | Dose of calcium chloride causing death in animals under experiment ([1]; intraperitoneal dose 25 mg/kg) | Relative toxisity to quinidine [3, 4]
1 | COC(=O)CC(C(=O)OC)N(C(=O)Nc1ccccc1)N(C)C (stereo not drawn) [I-56] | 92,4 mg/kg | 108,5 mg/kg | 102,0 mg/kg | 128,0 mg/kg | 3200 | 20,5 |  |  | 
2 | CN(C)N(CCC(N)=O)C(=S)Nc1ccccc1 [I-19, 3-(2,2-dimethyl-1-phenylthiocarbamoylhydrazino)propionamide] | 98,3 mg/kg | 112,0 mg/kg | 110,5 mg/kg | 130,0 mg/kg | 1750 | 11,2 |  |  | 
3 | C=CCNC(=S)N(CCC(=O)OCC)N(C)C [I-9, 3-(2,2-dimethyl-1-allylthiocarbamoylhydrazino)ethylpropionate] | 91,8 mg/kg | 107 mg/kg |  |  | 1780 | 11,4 | 104,8 mg/kg | 116,5 mg/kg | 
4 | CCOC(=O)CCN(C(=O)NC)N(C)C [I-8, 3-(2,2-dimethyl-1-methylcarbamoylhydrazino)-ethylpropionate] | 99,4 mg/kg | 112,0 mg/kg |  |  | 1870 | 11,9 | 123,2 mg/kg | 124,6 mg/kg | 
5 | CCOC(=O)CCN(C(=O)c1ccccc1)N(C)C [I-44, 3-(2,2-dimethyl-1-benzoylhydrazino)ethylpropionate] | 101,0 mg/kg | 120,0 mg/kg | 98,5 mg/kg | 126,0 mg/kg | 1650 | 10,5 |  |  | 
6 | CCCCCC(=O)N(CCC(N)=O)N(C)C [I-49, 3-(2,2-dimethyl-1-hexanoylhydrazino)propionamide] | 101,3 mg/kg | 120,5 mg/kg | 108,6 mg/kg | 136,8 mg/kg | 960 | 6,1 |  |  | 
7 | COC(=O)CCN(C(=O)Nc1ccccc1)N(C)C [I-3, 3-(2,2-dimethyl-1-phenylcarbamoylhydrazino)-methylpropionate] | 86,7 mg/kg | 97,0 mg/kg |  |  | 1350 | 8,6 | 124,7 mg/kg | 130,0 mg/kg | 
8 | CC(=O)N(CCC(N)=O)N(C)C [I-47, 3-(2,2-dimethyl-1-acetylhydrazino)propionamide] | 103 mg/kg | 118 mg/kg | 108 mg/kg | 125 mg/kg | > 3000 | > 19,2 |  |  | 
9 | CN(C)N(CCC(N)=O)C(=O)Nc1ccccc1 [I-16, 3-(2,2-dimethylamino-1-phenylcarbamoylhydrazino)propionamide] | 92,0 mg/kg | 115,3 mg/kg | 102,5 mg/kg | 125,0 mg/kg | 925 |  |  |  | 5,9
10 | CNC(=O)N(CC(C)C(=O)OC)N(C)C (stereo not drawn) [I-12, 3-(2,2-dimethyl-1-methylcarbamoylhydrazino)-2-methyl-methylpropionate] | 106,0 mg/kg | 110,0 mg/kg | 128,3 mg/kg | 130,5 mg/kg | 1270 | 8,1 |  |  | 
11 | CNC(=O)N(C(CC(=O)OC)C(=O)OC)N(C)C (stereo not drawn) [I-55] | 88,7 mg/kg | 112,5 mg/kg | 111,5 mg/kg | 135,0 mg/kg | 2300 | 14,7 |  |  | 
12 | CN(C)N(CCC(=O)O)C(=O)Nc1ccccc1 [I-64, Potassium salt of 3-(2,2-dimethyl-1-phenylcarbamoylhydrazino)-methylpropionate] | 98 mg/kg | 147 mg/kg | 141,7 mg/kg | 163 mg/kg | 1750 | 11,2 |  |  | 
13 | C=CC(=O)N(CCC(=O)OC)N(C)C [I-34, 3-(2,2-dimethyl-1-acroylhydrazino)-methylpropionate] | 108,4 mg/kg | 130,0 mg/kg | 110,5 mg/kg | 136,0 mg/kg | 980 | 6,2 |  |  | 
14 | CCCCCC(=O)N(CCC(=O)OC)N(C)C [I-26, 3-(2,2-dimethyl-1-hexanoylhydrazino)methylpropionate] | 111,3 mg/kg | 138,0 mg/kg | 107,6 mg/kg | 140,0 mg/kg | 630 |  |  |  | 4,0
15 | CCCC(=O)N(CCC(=O)OC)N(C)C [I-25, 3-(2,2-dimethyl-1-butyrylhydrazino)-methylpropionate] | 105,1 mg/kg | 112,3 mg/kg |  |  | 1750 | 11,2 | 77,0 mg/kg | 95,0 mg/kg | 
16 | CNC(=S)N(CCC(=O)OC)N(C)C [I-5, 3-(2,2-dimethyl-1-methylthiocarbamoylhydrazino)methylpropionate] | 87,5 mg/kg | 100,5 mg/kg |  |  | 3950 | 25,3 | 127,3 mg/kg | 131,4 mg/kg | 
17 | COC(=O)CCN(C(=O)Cc1ccccc1)N(C)C [I-30, 3-(2,2-dimethyl-1-benzylcarbonylhydrazino)methylpropionate] | 94,0 mg/kg | 120,5 mg/kg | 102,0 mg/kg | 125,0 mg/kg | 1200 | 7,6 |  |  | 
